# Laboratory results published in patent US12577242B2, “Pyrrolopyridine and imidazopyridine antiviral compounds” (KATHOLIEKE UNIVERSITEIT LEUVEN, priority 2020, dated 2026).
# Key:
# [1] = Cytotoxicity in MDBK cells (no BVD virus added); details: bovine, MDBK cells (Madin-Darby bovine kidney), no virus added
# [2] = system: Bovine viral diarrhea (BVD) virus; assay: Anti-BVDV CPE inhibition assay in MDBK cells; details: for EC50: Bovine viral diarrhea virus isolates and strains, MDBK, in Bos taurus, 96 h; for SI (selectivity index, ratio of CC50 and EC50): CC50/EC50, MDBK cells, BVD virus
# [3] = system: classical swine fever virus (CSFV) strain Alfort 187; assay: microbe, parasite or virus in culture; type: cell-based; details: PK-15, in Sus scrofa, 48 h
# [4] = system: BVDV type 1 strain SD1; details: 2 mg/kg i.v. 3x daily
Compound,CC50 at 4 days [1] [µM],EC50 [2] [µM],"SI (selectivity index, ratio of CC50 and EC50) [2]",further results
"Cc1ccc2nc(Cn3ccc4nc(-c5cnn(C)c5C)nc-4c3)sc2c1 [CPD-1, 2-((2-(1,5-dimethyl-1H-pyrazol-4-yl)-5H-imidazo[4,5-c]pyridin-5-yl)methyl)-6-methylbenzo[d]thiazole]",231,0.013 ± 0.005,17769,EC50 [3]: 0.3 ± 0.1 µM
"Cc1nc(Cn2ccc3nc(-c4ccccc4F)nc-3c2)sc1-c1ccccc1 [CPD-29, 2-((2-(2-fluorophenyl)-5H-imidazo[4,5-c]pyridin-5-yl)methyl)-4-methyl-5-phenylthiazole]",> 50,0.257 ± 0.107,>195,EC50 [3]: 2.8 ± 1.4 µM
"Fc1ccc(OC(F)(F)F)cc1-c1nc2ccn(Cn3nnc4ccccc43)cc-2n1 [CPD-40, 1-((2-(2-fluoro-5-(trifluoromethoxy)phenyl)-5H-imidazo[4,5-c]pyridin-5-yl)methyl)-1H-benzo[d][1,2,3]triazole]",48,0.089 ± 0.018,539,EC50 [3]: 5.9 µM
"Fc1ccccc1-c1cc2ccn(Cn3nnc4ccccc43)cc-2n1 [Compound I, 1-{[2-(2-fluorophenyl)-6H-pyrrolo[2,3-c]pyridin-6-yl]methyl}-1H-benzotriazole]",22,0.009 ± 0.008,2444,"Antibody titre of seroconverted calf on Day 14 ([4]; 7 days, Day 14): 16; Calves seroconverted (anti-BVDV neutralizing antibodies) by Day 14 ([4]; 7 days, Day 14 post challenge): 1 out of 5; Average anti-BVDV neutralising antibody titre on Day 28 ([4]; 7 days, Day 28): 64; Haematology and clinical chemistry versus control group ([4]; calves, 7 days, Day 0, 7, 14, 21, 28): did not reveal any difference between both treatment groups; Adverse drug reactions on daily clinical monitoring ([4]; calves, 7 days, Day 0 to Day 28): No signs of adverse drug reactions were observed; BVDV virus isolation from buffy coat samples during treatment ([4]; calves, Day 0 to Day 6): could not be detected"
"Cc1ccc2nc(Cn3ccc4cc(-c5cc(OCCO)ccc5F)nc-4c3)sc2c1 [Compound XII, 2-(4-fluoro-3-(6-((6-methyl-1,3-benzothiazol-2-yl)methyl)-6H-pyrrolo[2,3-c]pyridin-2-yl)phenoxy)ethan-1-ol]",5,0.02 ± 0.007,250,
"Cc1ccc2nc(Cn3ccc4cc(-c5ccccc5CO)nc-4c3)sc2c1 [Compound XIII, (2-{6-[(6-methyl-1,3-benzothiazol-2-yl)methyl]-6H-pyrrolo[2,3-c]pyridin-2-yl}phenyl)methanol]",18,0.009 ± 0.008,2000,
"COc1ncccc1-c1cc2ccn(Cc3nc4ccc(C)cc4s3)cc-2n1 [Compound XIV, 2-{[2-(2-methoxypyridin-3-yl)-6H-pyrrolo[2,3-c]pyridin-6-yl]methyl}-6-methyl-1,3-benzothiazole]",4,0.017,235,
"OCCOc1ccc(F)c(-c2cc3cn(Cn4nnc5ccccc54)ccc-3n2)c1 [Compound XIX, 2-(3-{5-[(1H-benzotriazol-1-yl)methyl]-5H-pyrrolo[3,2-c]pyridin-2-yl}-4-fluorophenoxy)ethan-1-ol]",> 50,0.097 ± 0.015,>515,
"Cc1ccc2nc(Cn3ccc4cc(-c5cnn(C)c5C)nc-4c3)sc2c1 [Compound XV, 2-{[2-(1,5-dimethyl-1H-pyrazol-4-yl)-6H-pyrrolo[2,3-c]pyridin-6-yl]methyl}-6-methyl-1,3-benzothiazole]",17,0.016 ± 0.001,1063,
"Cc1ccc2nc(Cn3ccc4cc(-c5ccccc5CO)nc-4c3)[nH]c2c1 [Compound XVI, (2-(6-((6-methyl-1H-benzoimidazol-2-yl)methyl)-6H-pyrrolo[2,3-c]pyridin-2-yl)phenyl)methanol]",22,0.294 ± 0.07,75,
"Fc1ccccc1-c1cc2cn(Cn3nnc4ccccc43)ccc-2n1 [Compound XVII, 1-{[2-(2-fluorophenyl)-5H-pyrrolo[3,2-c]pyridin-5-yl]methyl}-1H-benzotriazole]",19,0.012 ± 0.006,1583,
"Fc1ccc(OC(F)(F)F)cc1-c1cc2cn(Cn3nnc4ccccc43)ccc-2n1 [Compound XVIII, 1-({2-[2-fluoro-5-(trifluoromethoxy)phenyl]-5H-pyrrolo[3,2-c]pyridin-5-yl}methyl)-1H-benzotriazole]",12,0.076 ± 0.019,158,
"COc1ccccc1-c1cc2cn(Cn3nnc4ccccc43)ccc-2n1 [Compound XX, 1-{[2-(2-methoxyphenyl)-5H-pyrrolo[3,2-c]pyridin-5-yl]methyl}-1H-benzotriazole]",39,0.082,476,
"OCc1ccccc1-c1cc2cn(Cn3nnc4ccccc43)ccc-2n1 [Compound XXI, (2-(5-((1H-Benzotriazol-1-yl)methyl)-5H-pyrrolo[3,2-c]pyridin-2-yl)phenyl)methanol]",> 50,0.387 ± 0.022,>129,
"N#Cc1ccc(-c2cc3cn(Cn4nnc5ccccc54)ccc-3n2)cc1 [Compound XXII, 4-{5-[(1H-benzotriazol-1-yl)methyl]-5H-pyrrolo[3,2-c]pyridin-2-yl}benzonitrile]",21,0.007 ± 0.005,3000,
"COc1ncccc1-c1cc2cn(Cn3nnc4ccccc43)ccc-2n1 [Compound XXIII, 1-((2-(2-methoxypyridin-3-yl)-5H-pyrrolo[3,2-c]pyridin-5-yl)methyl)-1H-benzotriazole]",32,0.082,390,
"Cc1c(-c2cc3cn(Cn4nnc5ccccc54)ccc-3n2)cnn1C [Compound XXIV, 1-((2-(1,5-dimethyl-1H-pyrazol-4-yl)-5H-pyrrolo[3,2-c]pyridin-5-yl)methyl)-1H-benzotriazole]",12,0.076 ± 0.019,158,
"Cc1ccc2nc(Cn3ccc4nc(-c5cc(OCCO)ccc5F)cc-4c3)sc2c1 [Compound XXIX, 2-(4-fluoro-3-(5-((6-methyl-1,3-benzothiazol-2-yl)methyl)-5H-pyrrolo[3,2-c]pyridin-2-yl)phenoxy)ethan-1-ol]",16,0.037 ± 0.03,432,
"Cc1ccc2oc(Cn3ccc4nc(-c5ccccc5F)cc-4c3)nc2c1 [Compound XXV, 2-{[2-(2-fluorophenyl)-5H-pyrrolo[3,2-c]pyridin-5-yl]methyl}-5-methyl-1,3-benzoxazole]",7,0.004 ± 0.002,1750,
"Cc1ccc2oc(Cn3ccc4nc(-c5ccccc5CO)cc-4c3)nc2c1 [Compound XXVI, (2-(5-((5-methyl-1,3-benzoxazol-2-yl)methyl)-5H-pyrrolo[3,2-c]pyridin-2-yl)phenyl)methanol]",22,0.311 ± 0.078,71,
"COc1ncccc1-c1cc2cn(Cc3nc4cc(C)ccc4o3)ccc-2n1 [Compound XXVII, 2-((2-(2-methoxypyridin-3-yl)-5H-pyrrolo[3,2-c]pyridin-5-yl)methyl)-5-methyl-1,3-benzoxazole]",21,0.016 ± 0.001,1313,
"Cc1ccc2nc(Cn3ccc4nc(-c5ccccc5F)cc-4c3)sc2c1 [Compound XXVIII, 2-{[2-(2-fluorophenyl)-5H-pyrrolo[3,2-c]pyridin-5-yl]methyl}-6-methyl-1,3-benzothiazole]",3,0.016,188,
"Cc1ccc2nc(Cn3ccc4nc(-c5ccccc5CO)cc-4c3)sc2c1 [Compound XXX, (2-{5-[(6-methyl-1,3-benzothiazol-2-yl)methyl]-5H-pyrrolo[3,2-c]pyridin-2-yl}phenyl)methanol]",20,0.019 ± 0.007,1053,
"COc1ncccc1-c1cc2cn(Cc3nc4ccc(C)cc4s3)ccc-2n1 [Compound XXXI, 2-{[2-(2-methoxypyridin-3-yl)-5H-pyrrolo[3,2-c]pyridin-5-yl]methyl}-6-methyl-1,3-benzothiazole]",10,0.006 ± 0.006,1667,
"Cc1ccc2nc(Cn3ccc4nc(-c5cnn(C)c5C)cc-4c3)sc2c1 [Compound XXXII, 2-{[2-(1,5-dimethyl-1H-pyrazol-4-yl)-5H-pyrrolo[3,2-c]pyridin-5-yl]methyl}-6-methyl-1,3-benzothiazole]",21,0.012 ± 0.008,1750,
"COc1ncccc1-c1cc2cn(Cc3nc4ccc(C)cc4[nH]3)ccc-2n1 [Compound XXXIV, 2-((2-(2-methoxypyridin-3-yl)-5H-pyrrolo[3,2-c]pyridin-5-yl)methyl)-6-methyl-1H-benzoimidazole]",> 50,0.395 ± 0.02,>127,
"Cc1ccc2nc(Cn3ccc4nc(-c5ccccc5CO)cc-4c3)[nH]c2c1 [XXXIII, [2-[5-[(6-methyl-1H-benzimidazol-2-yl)methyl]pyrrolo[3,2-c]pyridin-2-yl]phenyl]methanol]",> 50,1.9 ± 0.102,>26,
